US12344610B2, “APOL1 inhibitors and methods of use” (Maze Therapeutics, Inc., priority 2022, dated 2025)

These compounds were tested against T1, APOL1 G2 (Homo sapiens, UniProt O14791, DEL388-389) (assay: APOL1-mediated calcium transport (calcium influx) assay, HEK T-REx/GCaMP6f/APOL1 G2 K6.3 cells, FLIPR TETRA). Details: prevention of calcium influx; geometric mean of at least 2 assay runs; † = average of a technical replicate from a single assay run.
T1 construct: expressed in transfected cells; host or cells: HEK293 T-REx clonal line stably expressing GCaMP6f (HEK T-REx/GCaMP6f/APOL1 G2 K6.3), doxycycline induced
T1 sequence (O14791 with tags, fused parts or gaps DEL388-389): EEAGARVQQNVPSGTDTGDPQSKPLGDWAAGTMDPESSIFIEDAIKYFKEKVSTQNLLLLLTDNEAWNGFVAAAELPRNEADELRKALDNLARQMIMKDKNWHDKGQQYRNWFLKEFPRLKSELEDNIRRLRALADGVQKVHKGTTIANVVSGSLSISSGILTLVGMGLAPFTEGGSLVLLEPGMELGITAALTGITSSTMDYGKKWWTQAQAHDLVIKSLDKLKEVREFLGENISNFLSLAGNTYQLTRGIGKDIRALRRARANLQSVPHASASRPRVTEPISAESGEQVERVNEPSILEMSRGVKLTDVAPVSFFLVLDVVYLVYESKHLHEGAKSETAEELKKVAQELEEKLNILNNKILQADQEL
Format: cell-based
Method in brief: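 A HEK293 T-REx clone stably expressing GCaMP6f had APOL1 G2 induced with doxycycline (20 ng/mL solution added) for 6 h. Cells were then washed into Ca2+-free Tyrode's buffer (pH 7.4) and preincubated with compounds (duplicate 8-point) for 10 min at room temperature. Ca2+ injection to 5 mM final produced FLIPR GCaMP fluorescence, giving AC50 for influx inhibition (geometric mean, ≥2 runs).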
With C[C@]1(O)C[C@@H](n2ccc3cc(OCCN4CCC5(CC4)C(=O)Nc4ccc(C(F)F)cc45)cnc32)C1 [Compound 350, 5-(difluoromethyl)-1′-[2-({1-[(cis)-3-hydroxy-3-methylcyclobutyl]-1H-pyrrolo[2,3-b]pyridin-5-yl}oxy)ethyl]-1,2-dihydrospiro[indole-3,4′-piperidin]-2-one] the AC50 was 113 nM.
C[C@]1(O)C[C@@H](n2cnc3cc(OCCN4CCC5(CC4)C(=O)Nc4ccc(Cl)cc45)cc(C(F)(F)F)c32)C1 [Compound 352, 5-chloro-1′-[2-({1-[(cis)-3-hydroxy-3-methylcyclobutyl]-7-(trifluoromethyl)-1H-1,3-benzodiazol-5-yl}oxy)ethyl]-1,2-dihydrospiro[indole-3,4′-piperidin]-2-one] gave an AC50 of 597 nM.
C[C@]1(O)C[C@@H](N2C(=O)NCc3cc(OCCN4CCC5(CC4)C(=O)Nc4ccc(Cl)cc45)cnc32)C1 [Compound 356, 5-chloro-1′-[2-({2-oxo-1-[(cis)-3-hydroxy-3-methylcyclobutyl]-1H,2H,3H,4H-pyrido[2,3-d]pyrimidin-6-yl}oxy)ethyl]-1,2-dihydrospiro[indole-3,4′-piperidin]-2-one] was tested, and the AC50 was 2490 nM.
CC(C)(O)c1ncc(OCCN2CCC3(CC2)C(=O)Nc2ccc(Cl)cc23)cc1C(F)(F)F [Compound 371, 5-chloro-1′-(2-{[6-(2-hydroxypropan-2-yl)-5-(trifluoromethyl)pyridin-3-yl]oxy}ethyl)-1,2-dihydrospiro[indole-3,4′-piperidin]-2-one] showed an AC50 of 504 nM.
C[C@]1(O)C[C@@H](n2c(=O)oc3cc(OCCN4CCC5(CC4)C(=O)Nc4ccc(Cl)cc45)cnc32)C1 [Compound 394, 5-chloro-1′-[2-({2-oxo-3-[(cis)-3-hydroxy-3-methylcyclobutyl]-2H,3H-[1,3]oxazolo[4,5-b]pyridin-6-yl}oxy)ethyl]-1,2-dihydrospiro[indole-3,4′-piperidin]-2-one] was tested, and the AC50 was 250 nM.
Work on O=C1Nc2ccc(Cl)cc2C12CCN(CCOc1cnc(N3CC4(CC(O)C4)C3)nc1)CC2 [Compound 396, 5-chloro-1′-{2-[(2-{6-hydroxy-2-azaspiro[3.3]heptan-2-yl}pyrimidin-5-yl)oxy]ethyl}-1,2-dihydrospiro[indole-3,4′-piperidin]-2-one] yielded an AC50 of 531 nM.
With CCC1(O)CN(c2ncc(OCCN3CCC4(CC3)C(=O)Nc3ccc(Cl)cc34)cn2)C1 [Compound 397, 5-chloro-1′-(2-{[2-(3-ethyl-3-hydroxyazetidin-1-yl)pyrinlidin-5-yl]oxy}ethyl)-1,2-dihydrospiro[indole-3,4′-piperidin]-2-one] the AC50 was 416 nM.
CC(CO)(c1ncc(OCCN2CCC3(CC2)C(=O)Nc2ccc(Cl)cc23)cc1C(F)(F)F)S(C)(=O)=O (stereo not shown) [Compound 401, 5-chloro-1′-(2-{[6-(1-hydroxy-2-methanesulfonylpropan-2-yl)-5-(trifluoromethyl)pyridin-3-yl]oxy}ethyl)-1,2-dihydrospiro[indole-3,4′-piperidin]-2-one] gave an AC50 of 603 nM.
C[C@]1(O)C[C@@H](n2ccc3cc(OCCN4CCC5(CC4)C(=O)Nc4ccc(C#N)cc45)cnc32)C1 [Compound 410, 2-oxo-1′-[2-({1-[(cis)-3-hydroxy-3-methylcyclobutyl]-1H-pyrrolo[2,3-b]pyridin-5-yl}oxy)ethyl]-1,2-dihydrospiro[indole-3,4′-piperidine]-5-carbonitrile] showed an AC50 of 623 nM.
With CC(C)(O)c1ncc(OCCN2CCC3(CC2)C(=O)Nc2ccc(C#N)cc23)cc1C(F)(F)F [Compound 411, 1′-(2-{[6-(2-hydroxypropan-2-yl)-5-(trifluoromethyl)pyridin-3-yl]oxy}ethyl)-2-oxo-1,2-dihydrospiro[indole-3,4′-piperidine]-5-carbonitrile] the AC50 was 436 nM.
Compound [2H]C([2H])(Oc1cnc2c(c1)CCC(=O)N2[C@H]1C[C@@](C)(O)C1)C([2H])([2H])N1CCC2(CC1)C(=O)Nc1ccc(Cl)cc12 [Compound 426, 5-chloro-1′-[2-({7-oxo-8-[(cis)-3-hydroxy-3-methylcyclobutyl]-5,6,7,8-tetrahydro-1,8-naphthyridin-3-yl}oxy)(1,1,2,2-^2H4)ethyl]-1,2-dihydrospiro[indole-3,4′-piperidin]-2-one] has an AC50 of 597 nM.
C[C@]1(O)C[C@@H](n2cc3cc(OCCN4CCC5(CC4)C(=O)Nc4ccc(Cl)cc45)cc(C(F)(F)F)c3n2)C1 [Compound 427, 5-chloro-1′-[2-({2-[(cis)-3-hydroxy-3-methylcyclobutyl]-7-(trifluoromethyl)-2H-indazol-5-yl}oxy)ethyl]-1,2-dihydrospiro[indole-3,4′-piperidin]-2-one] showed an AC50 of 708 nM.
C[C@]1(O)C[C@@H](n2cc3cc(OCCN4CCC5(CC4)C(=O)Nc4ccc(C#N)cc45)cc(C(F)(F)F)c3n2)C1 [Compound 428, 2-oxo-1′-[2-({2-[(cis)-3-hydroxy-3-methylcyclobutyl]-7-(trifluoromethyl)-2H-indazol-5-yl}oxy)ethyl]-1,2-dihydrospiro[indole-3,4′-piperidine]-5-carbonitrile] showed an AC50 of 1200 nM.
C[C@]1(O)C[C@@H](n2cnc3cc(OCCN4CCC5(CC4)C(=O)Nc4ccc(C#N)cc45)cc(C(F)(F)F)c32)C1 [Compound 433, 1′-(2-((1-((cis)-3-hydroxy-3-methylcyclobutyl)-7-(trifluoromethyl)-1H-benzo[d]imidazol-5-yl)oxy)ethyl)-2-oxospiro[indoline-3,4′-piperidine]-5-carbonitrile] gave an AC50 of 1300 nM.
Compound C[C@]1(O)C[C@@H](n2nnc3cc(OCCN4CCC5(CC4)C(=O)Nc4ccc(Cl)cc45)cc(C(F)(F)F)c32)C1 [Compound 434, 5-chloro-1′-[2-({1-[(cis)-3-hydroxy-3-methylcyclobutyl]-7-(trifluoromethyl)-1H-1,2,3-benzotriazol-5-yl}oxy)ethyl]-1,2-dihydrospiro[indole-3,4′-piperidin]-2-one] has an AC50 of 1270 nM.
Work on C[C@]1(O)C[C@@H](n2nnc3cc(OCCN4CCC5(CC4)C(=O)Nc4ccc(C#N)cc45)cc(C(F)(F)F)c32)C1 [Compound 435, 2-oxo-1′-[2-({1-[(cis)-3-hydroxy-3-methylcyclobutyl]-7-(trifluoromethyl)-1H-1,2,3-benzotriazol-5-yl}oxy)ethyl]-1,2-dihydrospiro[indole-3,4′-piperidine]-5-carbonitrile] yielded an AC50 of 1170 nM.
Compound C[C@]1(O)C[C@@H](n2cnc3cc(OCCN4CCC5(CC4)C(=O)Nc4ccc(Cl)cc45)cc(C#N)c32)C1 [Compound 439, 5-(2-{5-chloro-2-oxo-1,2-dihydrospiro[indole-3,4′-piperidin]-1′-yl}ethoxy)-1-[(cis)-3-hydroxy-3-methylcyclobutyl]-1H-1,3-benzodiazole-7-carbonitrile] has an AC50 of 603 nM.
C[C@]1(O)C[C@@H](n2nnc3cc(OCCN4CCC5(CC4)C(=O)Nc4ccc(Cl)cc45)cnc32)C1 [Compound 440, 5-chloro-1′-[2-({3-[(cis)-3-hydroxy-3-methylcyclobutyl]-3H-[1,2,3]triazolo[4,5-b]pyridin-6-yl}oxy)ethyl]-1,2-dihydrospiro[indole-3,4′-piperidin]-2-one] gave an AC50 of 552 nM.
Cc1nc2cc(OCCN3CCC4(CC3)C(=O)Nc3ccc(Cl)cc34)cc(C(F)(F)F)c2n1[C@H]1C[C@@](C)(O)C1 [Compound 442, 5-chloro-1′-[2-({2-methyl-1-[(cis)-3-hydroxy-3-methylcyclobutyl]-7-(trifluoromethyl)-1H-1,3-benzodiazol-5-yl}oxy)ethyl]-1,2-dihydrospiro[indole-3,4′-piperidin]-2-one] showed an AC50 of 2140 nM.
